In data set [1] the test system is patients with schizophrenia. The note with it: phase Ib; cited from earlier work.
In data set [2] the target is T1, human M4 receptor (Homo sapiens, UniProt P08173).
T1 construct: expressed in transfected cells
T1 sequence (P08173 1-479): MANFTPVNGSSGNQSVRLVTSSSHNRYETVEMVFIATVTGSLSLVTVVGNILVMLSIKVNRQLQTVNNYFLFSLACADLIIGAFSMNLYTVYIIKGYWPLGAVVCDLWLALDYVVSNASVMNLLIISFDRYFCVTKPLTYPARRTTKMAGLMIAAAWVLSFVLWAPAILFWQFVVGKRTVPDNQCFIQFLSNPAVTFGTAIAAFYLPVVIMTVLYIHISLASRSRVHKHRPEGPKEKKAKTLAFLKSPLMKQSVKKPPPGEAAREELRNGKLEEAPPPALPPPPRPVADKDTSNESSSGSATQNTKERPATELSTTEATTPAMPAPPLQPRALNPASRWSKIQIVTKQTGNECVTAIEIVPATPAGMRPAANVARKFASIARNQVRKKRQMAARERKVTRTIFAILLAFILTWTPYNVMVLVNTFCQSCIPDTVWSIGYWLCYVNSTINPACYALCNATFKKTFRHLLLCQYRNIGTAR
Briefly: PAM activity on M4 receptor, FLIPR CALCIUM 6 assay in M4-Gα15-CHO cells with acetylcholine. The format is cell-based. The note with it: PAM mode with acetylcholine agonist, FLIPR calcium signal. As for the experimental part: The activity of compounds on M4 receptor was determined by FLIPR CALCIUM 6 ASSAY KIT using a stable transfected cell line expressing human M4 receptor (M4-Gα15-CHO).
1. This study uses a CHO cell line stably expressing M4-Gα15 receptor, which expresses human CHRM4 and GNA15 genes, respectively.
2. Cell treatment: M4-Gα15-CHO cells were cultured in F-12 medium containing 10% fetal bovine serum, 0.4 mg/mL hygromycin B, and 0.8 mg/mL geneticin G418, with a culture temperature of 37° C. and a CO2 concentration of 5%. The old media was removed and the cells were washed once with phosphate buffered saline. 1 mL of trypsin solution was then added, and the mixture was incubated at 37° C. for approximately 2 minutes. After the cells were detached from the dish, approximately 5 mL of complete media pre-warmed at 37° C. was added. The cell suspension was gently pipetted to separate the aggregated cells. The cell suspension was transferred to a sterile centrifuge tube and centrifuged at 1000 rpm for 5 minutes.
1. Cell plating: M4-Gα15-CHO cells were digested and collected, then resuspended and counted, and seeded into a 384-well cell plate at a density of 1.2×10^4 cells/25 μL/well. The cell plate was then incubated in a 5% CO2 incubator at 37° C. for approximately 20 hours.
2. Preparation of loading buffer according to the instructions of FLIPR CALCIUM 6 ASSAY KIT after 24 hours: Component A was freeze-thawed to room temperature, and diluted with assay buffer and probenecid solution to obtain a loading buffer, which was kept at room temperature for later use.
3. The medium was removed from the cell plate, and 35 µL of loading buffer was quickly added to each well. After centrifugation, the cell plate was incubated at 37° C. in the dark for 120 minutes.
4. A working solution of the compound to be tested was prepared, 5 μL of which was transferred to the corresponding cell wells, and incubated at 37° C. in the dark for 30 minutes.
5. 30 nM acetylcholine agonist working solution was prepared and transferred to a 384-well loading plate at 20 μL/well.
6. The cell plate, the loading plate, and the pipette tip were placed at the corresponding positions of the FLIPR instrument. 10 μL of the agonist diluted in step 5 was added to the experimental wells using FLIPR, and data were collected at a wavelength of 515 nm to 575 nm.
7. The signal value was plotted against compound concentration. Curve fitting and EC50 calculation were performed by nonlinear regression method using GraphPad Prism software.
1. 0.5 mol/L 2-(4-(2-hydroxyethyl)piperazine)ethanesulfonic acid buffer was mixed with Hanks' balanced salt solution (pH 7.4) at a volume ratio of 1:24 to prepare an assay buffer. 10 mL of assay buffer was added to a vial of CALCIUM 6 ASSAY KIT Component A in the form of lyophilized powder, and aliquoted and stored at −20° C.
2. Probenecid powder was dissolved in 1 mol/L sodium hydroxide solution to a final concentration of […]. The assay buffer, freeze-thawed Component A, and probenecid solution were mixed at a volume ratio of 44:5:1 to prepare a loading buffer.

Data set [3] can be described thus: Pharmacokinetic properties in vivo in mice (iv and oral). The note with it: mouse, plasma, CD-1 mice, oral 2.0 mg/kg; for bioavailability / clearance / Vd / Cmax: iv 1.0 mg/kg; for bioavailability: read-out: Bioavailability F; for clearance: read-out: Clearance CL; for Vd: read-out: Volume of distribution at steady state Vdss; for AUC(0-t): read-out: Area under the curve AUC0-last, po; for half-life: read-out: Half-life T1/2, po (converted); for Cmax: read-out: Peak concentration Cmax. As for the experimental part:
The compounds obtained in the examples of the present disclosure were evaluated for their pharmacokinetic properties in vivo in CD-1 mice.
The compounds were tested for their pharmacokinetic characteristics in rodents after intravenous injection and oral administration following standard protocols. In the experiment, the candidate compound was prepared into a clear solution or suspension with a specified vehicle, and administered to three mice via single-dose intravenous injection and oral administration, respectively. The vehicle for both intravenous injection and oral administration was 5% dimethyl sulfoxide+95% (10% polyethylene glycol (15)-hydroxystearate in water). Whole blood samples within 24 hours were collected into a commercial EDTA2K anticoagulant tube, followed by centrifugation to obtain the upper plasma sample, and acetonitrile solution containing internal standard was added to precipitate proteins. After centrifugation, the supernatant was mixed with an equal volume of water, and after another centrifugation, the supernatant was taken for injection. Plasma concentration was quantitatively analyzed using LCMS/MS analysis method, and pharmacokinetic parameters were calculated.

The subject of data set [4] is mice. The note with it: genetic mouse model of schizophrenia; cited from earlier work.
Data set [5] relates to patients. The note with it: cited from earlier work.

SMILES strings stand for the structures. pEC50: −log10 of the molar value.

With `Cc1cc(C)c2c(n1)CN(C(=O)CC1CN(c3ccnc(C(F)(F)F)c3)C1)C2` [CVL-231], the PANSS total score entry in data set [1] was “significantly reduce”.

Broadly, the pEC50 is the EC50 on a negative log10 scale, so that one unit is a factor of ten. The term bioavailability denotes the share of a dose that reaches the circulation, judged against a reference dose that is usually intravenous. As to `Cc1nnc(N2CCC2)c2c1CN(C(=O)CC1CN(c3ccnc(C(F)(F)F)c3)C1)C2` [Example 12], the pEC50 in data set [2] was 6.46. In addition, in data set [3], the bioavailability came to 86.6%, the clearance turned out to be 17.1 mL/min/kg, the Vd was 2.3 L/kg and the AUC(0-t) came out at 1690 ng·h/mL. Moreover, in data set [3], the half-life is 1.13 h and the Cmax stood at 614 ng/mL.

Regarding `Cc1nnc(C)c2c1CN(C(=O)CC1CN(c3ccnc(C(F)(F)F)c3)C1)C2` [Example 24], the negative-log EC50 (pEC50) in data set [2] was 6.41.

Regarding `Cc1nnc(N2CCC2)c2c1CN(C(=O)CC1CN(c3ccnc(OCC(F)(F)F)c3)C1)C2` [Example 47], in data set [2], the pEC50 was 6.60.

Turning to `Cc1nsc(N2CC(CC(=O)N3Cc4c(C)nnc(N5CCC5)c4C3)C2)n1` [Example 50], the pEC50 in data set [2] is 5.75.

Consider `Cc1nnc(N2CCC2)c2c1CN(C(=O)CC1CN(c3ccnc(C(F)(F)F)c3)C1C)C2` (stereo not drawn) [Example 51], for which the pEC50 in data set [2] is 5.86.

For the compound `Cc1nnc(C)c2c1CN(C(=O)CC1CN(c3ccnc(OCC(F)(F)F)c3)C1)C2` [Example 67], in data set [2], the pEC50 is 6.41. Besides, in data set [3], the bioavailability stood at 82.7%, the clearance came to 3.32 mL/min/kg, the Vd stood at 1.53 L/kg and the AUC(0-t) was found to be 8040 ng·h/mL. Moreover, in data set [3], the half-life was 4.78 h and the Cmax was found to be 827 ng/mL.

For the compound `Cc1nnc(C)c2c1CN(C(=O)CC1CN(c3ccnc(SC(F)(F)F)c3)C1)C2` [Example 68], the pEC50 in data set [2] is 6.32.

As to `Cc1nnc(C)c2c1CN(C(=O)CC1CN(c3ccnc(O[C@H](C)C(F)(F)F)c3)C1)C2` [Example 89], the pEC50 in data set [2] was 6.54. For the same compound, in data set [3], the bioavailability turned out to be 80.6%, the clearance stood at 7.65 mL/min/kg, the Vd was determined as 3.72 L/kg and the AUC(0-t) amounted to 3470 ng·h/mL. For the same compound, in data set [3], the half-life is 4.65 h and the Cmax amounted to 345 ng/mL.

For the compound `Cc1nnc(C2CC2)c2c1CN(C(=O)CC1CN(c3ccnc(OCC(F)(F)F)c3)C1)C2` [Example 98], the negative logarithm of the EC50 (pEC50) in data set [2] was 5.95.

As for `CCc1nnc(C)c2c1CN(C(=O)CC1CN(c3ccnc(OCC(F)(F)F)c3)C1)C2` [Example 110], the pEC50 in data set [2] is 6.05.

`Cc1nnc(C)c2c1CN(C(=O)CC1CN(c3ccnc(O[C@@H](C)C(F)(F)F)c3)C1)C2` [Example 116]: the pEC50 in data set [2] is 6.24.

As to `Cc1c(Cc2ccc(-n3cccn3)cc2)cc2c(c1F)CN([C@H]1COCC[C@@H]1O)C2=O` [TAK-071], the “deficits in memory cognition, social competence, and sensory-motor gating” value in data set [4] was “significantly ameliorates”.

In the case of `CCCCCCOc1nsnc1C1=CCCN(C)C1` [Xanomeline], in data set [5] (peripheral nervous system and digestive tract), the “toxic and side effects” value is “serious toxic and side effects”. For the same compound, the “cognitive function of patients” value in data set [5] (phase II clinical trial, Alzheimer's disease) is listed as “improvement in the cognitive function”.

(Values after US20260109700A1, “NITROGEN-CONTAINING HETEROCYCLIC COMPOUNDS AND PHARMACEUTICALLY ACCEPTABLE SALTS THEREOF, PREPARATION METHOD THEREFOR, AND THE USE THEREOF” (NEUSHEN THERAPEUTICS (SHANGHAI) CO., LTD, priority 2022, published 2026).)
